Data: ChEMBL document CHEMBL1201862, “PubChem BioAssay data set” (2004)
Activity calls are given as the source filed them.

Tests used:
[1] = system: HEK293; assay: cells; type: functional, cell-based; settings: Homo sapiens
[2] = molecular target: T1, Nuclear receptor subfamily 0 group B member 1 (Homo sapiens, UniProt P51843); assay: Luminescence-based cell-based high throughput dose response assay for inhibitors of the orphan nuclear receptor subfamily 0, group B, member 1 (DAX1; NR0B1). [Related pubchem assays (depositor defined):AID504766, AID504790]; type: functional
T1 sequence (P51843 whole entry): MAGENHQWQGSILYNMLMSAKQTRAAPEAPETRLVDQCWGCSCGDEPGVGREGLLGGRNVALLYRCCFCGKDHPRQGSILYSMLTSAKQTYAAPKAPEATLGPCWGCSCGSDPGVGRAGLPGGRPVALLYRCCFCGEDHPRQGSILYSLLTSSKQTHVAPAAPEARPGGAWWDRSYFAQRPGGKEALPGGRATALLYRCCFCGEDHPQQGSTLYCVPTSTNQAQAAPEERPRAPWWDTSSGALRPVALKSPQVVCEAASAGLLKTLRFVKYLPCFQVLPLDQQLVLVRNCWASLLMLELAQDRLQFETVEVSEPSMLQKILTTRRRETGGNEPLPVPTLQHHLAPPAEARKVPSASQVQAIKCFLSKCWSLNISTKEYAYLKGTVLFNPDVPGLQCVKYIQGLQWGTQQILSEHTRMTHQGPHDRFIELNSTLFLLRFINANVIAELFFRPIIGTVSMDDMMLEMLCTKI

[3] = molecular target: T2, Cytochrome P450 2C9 (Homo sapiens, UniProt P11712)
T2 sequence (P11712 whole entry): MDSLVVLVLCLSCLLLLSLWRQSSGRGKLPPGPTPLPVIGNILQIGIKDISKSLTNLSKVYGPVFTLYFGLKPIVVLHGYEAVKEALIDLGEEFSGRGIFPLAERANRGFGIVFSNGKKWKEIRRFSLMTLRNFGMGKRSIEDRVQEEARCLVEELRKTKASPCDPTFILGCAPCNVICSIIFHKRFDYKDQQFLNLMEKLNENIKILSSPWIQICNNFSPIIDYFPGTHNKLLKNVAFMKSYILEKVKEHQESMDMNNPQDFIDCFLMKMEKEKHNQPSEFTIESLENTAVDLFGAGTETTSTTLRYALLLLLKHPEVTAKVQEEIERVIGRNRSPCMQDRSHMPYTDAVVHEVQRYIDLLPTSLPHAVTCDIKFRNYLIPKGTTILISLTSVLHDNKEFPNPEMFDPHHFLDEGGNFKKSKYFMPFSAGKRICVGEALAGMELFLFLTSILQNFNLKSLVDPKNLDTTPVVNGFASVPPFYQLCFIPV

[4] = molecular target: Cytochrome P450 3A4 (Homo sapiens, UniProt P08684);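 further: CYP3A4 tested as one member of a cytochrome P450 panel screen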
Sequence of Cytochrome P450 3A4 (P08684 whole entry): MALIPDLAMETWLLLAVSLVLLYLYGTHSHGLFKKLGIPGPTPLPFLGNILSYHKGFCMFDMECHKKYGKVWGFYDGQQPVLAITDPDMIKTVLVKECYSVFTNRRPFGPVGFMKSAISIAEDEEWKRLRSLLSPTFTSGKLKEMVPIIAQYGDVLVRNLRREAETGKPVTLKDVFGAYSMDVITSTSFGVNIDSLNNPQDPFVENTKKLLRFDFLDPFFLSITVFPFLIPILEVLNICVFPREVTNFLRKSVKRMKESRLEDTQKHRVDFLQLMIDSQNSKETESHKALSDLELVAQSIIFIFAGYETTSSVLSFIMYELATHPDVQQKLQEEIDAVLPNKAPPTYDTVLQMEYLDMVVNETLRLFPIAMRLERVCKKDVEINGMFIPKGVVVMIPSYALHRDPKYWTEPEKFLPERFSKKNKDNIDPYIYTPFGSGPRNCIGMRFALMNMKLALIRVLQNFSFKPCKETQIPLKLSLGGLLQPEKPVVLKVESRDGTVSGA

[5] = molecular target: SUMO E1/E2 (Homo sapiens, UniProt P63279+Q9UBE0+Q9UBT2); assay: SAR analysis of SUMOylation using HTRF in an in-Vitro dose response assay. [Related pubchem assays (depositor defined):AID2006, AID2011, AID2018, AID2069, AID2658]; type: functional
Sequence of SUMO E1/E2 (Q9UBE0 whole entry): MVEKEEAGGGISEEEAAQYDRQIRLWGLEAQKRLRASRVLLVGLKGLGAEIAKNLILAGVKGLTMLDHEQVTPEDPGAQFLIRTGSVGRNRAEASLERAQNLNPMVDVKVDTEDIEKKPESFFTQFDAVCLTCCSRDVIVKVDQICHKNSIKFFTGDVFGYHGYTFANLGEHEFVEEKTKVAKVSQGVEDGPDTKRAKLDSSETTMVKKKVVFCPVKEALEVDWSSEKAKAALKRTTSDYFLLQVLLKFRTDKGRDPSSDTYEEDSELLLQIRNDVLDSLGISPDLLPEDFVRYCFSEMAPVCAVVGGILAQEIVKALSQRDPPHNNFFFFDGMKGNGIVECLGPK
Sequence of SUMO E1/E2 (Q9UBT2 whole entry): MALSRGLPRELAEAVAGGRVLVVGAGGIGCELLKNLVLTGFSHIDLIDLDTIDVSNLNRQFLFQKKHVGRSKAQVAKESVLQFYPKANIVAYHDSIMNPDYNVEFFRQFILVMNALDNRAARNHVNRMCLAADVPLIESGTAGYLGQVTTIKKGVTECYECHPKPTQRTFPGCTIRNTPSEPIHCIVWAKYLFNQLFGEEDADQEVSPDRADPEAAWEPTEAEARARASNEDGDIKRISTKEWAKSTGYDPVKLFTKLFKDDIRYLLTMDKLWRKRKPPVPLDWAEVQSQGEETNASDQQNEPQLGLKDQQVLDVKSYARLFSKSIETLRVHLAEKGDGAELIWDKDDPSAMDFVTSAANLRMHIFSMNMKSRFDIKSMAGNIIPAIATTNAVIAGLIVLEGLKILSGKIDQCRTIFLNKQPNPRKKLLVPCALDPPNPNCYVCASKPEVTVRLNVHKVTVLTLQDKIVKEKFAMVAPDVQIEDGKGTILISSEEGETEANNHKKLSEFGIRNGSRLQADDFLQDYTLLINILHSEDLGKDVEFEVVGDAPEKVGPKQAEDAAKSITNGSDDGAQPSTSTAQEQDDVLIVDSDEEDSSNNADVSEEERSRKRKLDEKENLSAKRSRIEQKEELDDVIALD
Sequence of SUMO E1/E2 (P63279 whole entry): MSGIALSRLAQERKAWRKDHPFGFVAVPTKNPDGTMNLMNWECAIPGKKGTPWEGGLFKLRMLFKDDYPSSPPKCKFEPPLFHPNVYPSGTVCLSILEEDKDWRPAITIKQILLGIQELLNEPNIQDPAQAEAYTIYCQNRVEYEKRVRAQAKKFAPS

[6] = cells; type: functional
[7] = molecular target: T3, Replicative DNA helicase DnaB (Mycobacterium tuberculosis, UniProt P9WMR3); assay: DnaB intein splicing inhibitors, dose response, biochemical, cell-free fluorescence (AID 449749); type: functional
T3 sequence (P9WMR3 whole entry): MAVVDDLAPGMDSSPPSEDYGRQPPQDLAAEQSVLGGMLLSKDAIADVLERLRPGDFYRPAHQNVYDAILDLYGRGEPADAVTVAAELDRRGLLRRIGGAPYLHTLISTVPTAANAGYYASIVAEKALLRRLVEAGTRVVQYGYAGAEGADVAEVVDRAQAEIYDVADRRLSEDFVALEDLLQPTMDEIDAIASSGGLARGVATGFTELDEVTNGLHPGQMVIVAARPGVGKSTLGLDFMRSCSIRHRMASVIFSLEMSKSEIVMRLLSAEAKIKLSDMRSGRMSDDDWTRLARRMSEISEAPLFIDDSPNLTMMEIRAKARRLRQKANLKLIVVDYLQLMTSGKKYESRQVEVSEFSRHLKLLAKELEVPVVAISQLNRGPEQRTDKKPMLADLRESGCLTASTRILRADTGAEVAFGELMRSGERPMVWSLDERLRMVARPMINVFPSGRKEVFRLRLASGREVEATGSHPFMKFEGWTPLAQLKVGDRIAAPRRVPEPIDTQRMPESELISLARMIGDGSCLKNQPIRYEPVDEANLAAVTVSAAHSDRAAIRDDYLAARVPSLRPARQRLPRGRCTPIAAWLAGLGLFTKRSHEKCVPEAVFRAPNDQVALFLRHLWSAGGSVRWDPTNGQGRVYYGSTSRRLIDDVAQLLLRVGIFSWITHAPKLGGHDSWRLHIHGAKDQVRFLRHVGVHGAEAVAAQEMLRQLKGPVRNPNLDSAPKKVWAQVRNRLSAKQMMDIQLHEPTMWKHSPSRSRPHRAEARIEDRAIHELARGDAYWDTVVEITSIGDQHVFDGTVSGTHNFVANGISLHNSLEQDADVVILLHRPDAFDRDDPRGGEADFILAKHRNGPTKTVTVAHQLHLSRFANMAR

[8] = molecular target: T4, Protein RecA (Mycobacterium tuberculosis, UniProt P9WHJ3); assay: Fluorescence Cell-Free Homogeneous Dose Retest to Identify Inhibitors of RecA-Intein Splicing Activity. [Related pubchem assays (depositor defined):AID2097, AID2223, AID489010, AID492950]; type: functional
T4 sequence (P9WHJ3 whole entry): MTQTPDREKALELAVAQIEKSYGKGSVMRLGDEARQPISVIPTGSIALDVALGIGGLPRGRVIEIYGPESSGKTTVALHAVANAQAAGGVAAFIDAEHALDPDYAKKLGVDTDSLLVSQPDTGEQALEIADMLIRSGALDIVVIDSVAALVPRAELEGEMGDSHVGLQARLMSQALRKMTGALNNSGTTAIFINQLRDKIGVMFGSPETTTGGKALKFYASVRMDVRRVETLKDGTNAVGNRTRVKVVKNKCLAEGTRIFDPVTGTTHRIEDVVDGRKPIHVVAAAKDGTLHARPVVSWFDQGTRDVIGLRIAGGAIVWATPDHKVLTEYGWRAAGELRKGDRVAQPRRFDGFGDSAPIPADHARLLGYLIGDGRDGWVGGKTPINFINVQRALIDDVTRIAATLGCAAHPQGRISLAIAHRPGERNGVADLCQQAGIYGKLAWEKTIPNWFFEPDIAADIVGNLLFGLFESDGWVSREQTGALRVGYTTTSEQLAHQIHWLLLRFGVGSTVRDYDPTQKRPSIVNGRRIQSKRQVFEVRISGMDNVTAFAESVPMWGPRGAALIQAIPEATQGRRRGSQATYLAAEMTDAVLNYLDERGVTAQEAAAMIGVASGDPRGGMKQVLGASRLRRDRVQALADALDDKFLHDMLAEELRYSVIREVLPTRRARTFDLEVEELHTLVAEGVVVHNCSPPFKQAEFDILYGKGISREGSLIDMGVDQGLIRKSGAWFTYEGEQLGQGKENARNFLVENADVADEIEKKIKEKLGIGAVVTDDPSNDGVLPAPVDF

[9] = molecular target: Genome polyprotein (dengue virus type 2, UniProt P29990); assay: flavivirus cap methylation enzyme inhibition – biochemical, confirmation dose response, primary screen (AID 588689); type: functional
Sequence of Genome polyprotein (P29990 2492-3391 limits assumed): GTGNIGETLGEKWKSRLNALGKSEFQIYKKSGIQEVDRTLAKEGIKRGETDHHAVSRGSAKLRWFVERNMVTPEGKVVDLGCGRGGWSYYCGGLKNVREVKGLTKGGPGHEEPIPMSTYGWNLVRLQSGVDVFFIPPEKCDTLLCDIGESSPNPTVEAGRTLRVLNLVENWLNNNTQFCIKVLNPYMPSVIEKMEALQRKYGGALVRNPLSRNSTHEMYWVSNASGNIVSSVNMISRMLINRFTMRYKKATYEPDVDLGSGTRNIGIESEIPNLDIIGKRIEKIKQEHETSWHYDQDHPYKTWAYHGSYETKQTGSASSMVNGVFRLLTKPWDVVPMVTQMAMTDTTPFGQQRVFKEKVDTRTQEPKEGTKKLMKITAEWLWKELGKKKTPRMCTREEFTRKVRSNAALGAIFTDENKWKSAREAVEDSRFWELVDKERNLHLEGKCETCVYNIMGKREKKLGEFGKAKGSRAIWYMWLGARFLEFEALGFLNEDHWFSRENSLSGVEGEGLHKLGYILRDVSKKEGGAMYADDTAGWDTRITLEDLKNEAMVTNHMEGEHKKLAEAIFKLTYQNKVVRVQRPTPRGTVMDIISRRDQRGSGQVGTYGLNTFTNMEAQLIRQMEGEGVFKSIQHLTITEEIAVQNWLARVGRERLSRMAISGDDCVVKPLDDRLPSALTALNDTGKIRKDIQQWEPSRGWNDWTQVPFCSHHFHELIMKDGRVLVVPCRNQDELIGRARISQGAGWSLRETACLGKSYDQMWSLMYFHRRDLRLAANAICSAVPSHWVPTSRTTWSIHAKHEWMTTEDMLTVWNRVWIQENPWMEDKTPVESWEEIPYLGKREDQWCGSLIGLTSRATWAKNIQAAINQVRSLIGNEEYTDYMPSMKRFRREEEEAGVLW

[10] = molecular target: T5, Sentrin-specific protease 8 (Homo sapiens, UniProt Q96LD8); type: functional
T5 sequence (Q96LD8 whole entry): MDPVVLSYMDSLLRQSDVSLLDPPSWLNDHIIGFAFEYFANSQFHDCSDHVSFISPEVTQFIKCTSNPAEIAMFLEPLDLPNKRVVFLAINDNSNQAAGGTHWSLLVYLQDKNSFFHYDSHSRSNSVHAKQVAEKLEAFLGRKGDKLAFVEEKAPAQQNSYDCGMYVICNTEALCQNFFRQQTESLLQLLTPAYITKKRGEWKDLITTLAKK

[11] = molecular target: T5, Sentrin-specific protease 8; type: functional; remark: listed apart in the source
[12] = molecular target: Cytochrome P450 2C19 (Homo sapiens, UniProt P33261); assay: Cytochrome panel assay with activity outcomes. Panel member name: p450-cyp2c19 Compounds with AC50 equal or less than 10 uM are considered active; type: functional; settings: read-out: AC50
Sequence of Cytochrome P450 2C19 (P33261 whole entry): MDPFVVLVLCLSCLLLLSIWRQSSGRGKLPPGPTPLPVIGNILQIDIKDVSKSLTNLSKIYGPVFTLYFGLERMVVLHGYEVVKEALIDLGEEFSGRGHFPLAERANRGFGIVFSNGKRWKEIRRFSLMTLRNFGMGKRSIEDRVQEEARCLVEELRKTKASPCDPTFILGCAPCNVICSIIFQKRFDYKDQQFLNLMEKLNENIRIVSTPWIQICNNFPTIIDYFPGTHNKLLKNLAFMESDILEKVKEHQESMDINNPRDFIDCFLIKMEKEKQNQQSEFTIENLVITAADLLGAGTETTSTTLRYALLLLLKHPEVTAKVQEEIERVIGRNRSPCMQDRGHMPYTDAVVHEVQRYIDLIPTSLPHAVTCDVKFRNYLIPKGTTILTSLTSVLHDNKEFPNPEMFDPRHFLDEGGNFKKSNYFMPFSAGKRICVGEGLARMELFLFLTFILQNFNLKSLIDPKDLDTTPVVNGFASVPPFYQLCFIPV

[13] = molecular target: T2, Cytochrome P450 2C9; remark: listed apart in the source
[14] = molecular target: T6, Endoribonuclease toxin MazF (Escherichia coli K-12, UniProt P0AE70); assay: activation of MazEF endoribonuclease cleavage – biochemical, fluorescence, single-stranded RNA substrate, uHTS hits, dose response (AID 588481); type: functional
T6 sequence (P0AE70 whole entry): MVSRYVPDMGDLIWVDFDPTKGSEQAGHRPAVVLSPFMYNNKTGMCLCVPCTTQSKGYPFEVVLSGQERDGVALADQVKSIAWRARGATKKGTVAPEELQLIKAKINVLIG

[15] = molecular target: T6, Endoribonuclease toxin MazF; assay: substrate-only fluorescence increase artefacts – biochemical, single-stranded RNase substrate, counter-screen for MazEF activator project, dose response (AID 588502); type: functional
[16] = luciferase reporter signal suppression in cells – H4 neuroglioma cells, luminescence, dose response (AID 1990); type: functional, cell-based
[17] = molecular target: T7, RNA-binding protein pos-1 (Caenorhabditis elegans, UniProt G5EF15); assay: disruptors of C. elegans POS-1 RNA interaction – biochemical, fluorescence polarization, dose response (AID 1964);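 further: purified POS-1 fused to maltose binding protein made in E. coli; potency of compounds blocking POS-1 binding to fluorescent RNA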
T7 sequence (G5EF15 whole entry): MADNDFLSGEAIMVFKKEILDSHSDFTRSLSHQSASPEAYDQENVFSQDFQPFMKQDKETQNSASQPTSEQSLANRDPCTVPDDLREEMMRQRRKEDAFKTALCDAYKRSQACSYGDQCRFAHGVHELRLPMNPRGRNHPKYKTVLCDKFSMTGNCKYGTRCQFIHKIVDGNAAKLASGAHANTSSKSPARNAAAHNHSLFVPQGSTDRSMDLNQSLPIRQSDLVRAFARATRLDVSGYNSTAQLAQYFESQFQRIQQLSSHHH

[18] = Luminescence Cell-Based Dose Response HTS to Identify Inhibitors of 5'UTR Stem-Loop Driven Prion Protein mRNA Translation in H4 Neuroglioblastoma Cells. [Related pubchem assays: 1827 (Project Summary), 1813 (Primary HTS)]; type: functional
[19] = molecular target: T8, Zinc finger protein mex-5 (Caenorhabditis elegans, UniProt Q9XUB2); assay: potency of MEX-5 RNA-binding blockers – biochemical, C. elegans, fluorescence polarization, dose response (AID 1960)
T8 sequence (Q9XUB2 whole entry): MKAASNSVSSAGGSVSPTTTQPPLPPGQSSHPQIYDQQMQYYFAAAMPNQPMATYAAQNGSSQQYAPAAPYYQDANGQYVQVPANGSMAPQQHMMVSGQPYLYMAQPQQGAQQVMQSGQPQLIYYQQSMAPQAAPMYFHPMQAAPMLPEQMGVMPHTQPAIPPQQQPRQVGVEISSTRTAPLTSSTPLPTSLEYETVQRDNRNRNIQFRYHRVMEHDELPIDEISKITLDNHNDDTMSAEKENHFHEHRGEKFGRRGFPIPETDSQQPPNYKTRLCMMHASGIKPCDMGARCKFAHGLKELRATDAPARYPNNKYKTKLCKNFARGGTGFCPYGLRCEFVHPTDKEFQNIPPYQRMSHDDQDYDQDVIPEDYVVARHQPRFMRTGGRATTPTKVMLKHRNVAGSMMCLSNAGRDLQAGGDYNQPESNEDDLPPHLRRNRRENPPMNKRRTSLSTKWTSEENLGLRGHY

[20] = alpha-synuclein stem-loop luciferase translation blockers – H4 neuroglioma cells, luminescence, confirmation (AID 1988); type: functional, cell-based
[21] = molecular target: Dual specificity tyrosine-phosphorylation-regulated kinase 1A (Rattus norvegicus, UniProt Q63470); type: biochemical, Homo sapiens
[22] = system: Streptococcus sp. 'group A'; assay: Streptococcus pyogenes SK(-)GAS viability under kanamycin – luminescence, BacTiterGlo, confirmation, counter-screen for streptokinase expression inhibitor project, dose response (AID 1900); type: functional, organism-based
[23] = system: Streptococcus; assay: GAS UMAA2166 growth inhibition – luminescence, BacTiterGlo, counter-screen for streptokinase expression inhibitor project, dose response (AID 1915); type: functional, organism-based;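 further: potency for reduction of bacterial viability or growth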
[24] = molecular target: FAD-linked sulfhydryl oxidase ALR (Homo sapiens, UniProt P55789); assay: ALR-catalysed DTT oxidation blockers – biochemical, H2O2 detection, luminescence, cherry-pick, dose response (AID 493248)
Sequence of FAD-linked sulfhydryl oxidase ALR (P55789 whole entry): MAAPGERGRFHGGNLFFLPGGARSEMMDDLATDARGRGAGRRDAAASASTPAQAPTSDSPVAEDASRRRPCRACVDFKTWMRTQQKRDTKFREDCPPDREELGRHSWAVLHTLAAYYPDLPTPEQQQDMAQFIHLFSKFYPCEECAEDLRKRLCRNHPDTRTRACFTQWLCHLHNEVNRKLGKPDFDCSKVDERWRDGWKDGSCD

[25] = molecular target: Dual specificity protein kinase CLK1 (Homo sapiens, UniProt P49759); assay: inhibition of human CLK1 activity – biochemical, cherry-picked samples, selectivity assay for Dyrk1A inhibitor project, dose response (AID 588811)
Sequence of Dual specificity protein kinase CLK1 (P49759 whole entry): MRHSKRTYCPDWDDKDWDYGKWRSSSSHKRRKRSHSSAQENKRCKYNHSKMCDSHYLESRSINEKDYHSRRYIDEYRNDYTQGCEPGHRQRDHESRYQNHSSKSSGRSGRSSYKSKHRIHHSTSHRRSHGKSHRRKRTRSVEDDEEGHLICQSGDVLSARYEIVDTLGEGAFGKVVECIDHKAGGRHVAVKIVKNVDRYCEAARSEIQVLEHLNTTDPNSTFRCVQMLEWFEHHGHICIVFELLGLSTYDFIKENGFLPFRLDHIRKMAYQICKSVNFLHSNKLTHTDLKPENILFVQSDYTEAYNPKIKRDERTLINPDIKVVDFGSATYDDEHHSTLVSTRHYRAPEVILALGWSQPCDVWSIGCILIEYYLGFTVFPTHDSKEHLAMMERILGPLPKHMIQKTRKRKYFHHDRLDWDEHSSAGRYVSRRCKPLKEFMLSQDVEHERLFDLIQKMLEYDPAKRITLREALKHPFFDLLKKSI

SMILES: CCn1c(=O)c(C(=O)NNS(=O)(=O)c2ccc(Br)cc2)c(O)c2ccccc21
- IC50 [1]: > 67.6 µM (inactive)
- IC50 [2]: > 67.6 µM (inactive)

SMILES: O=C(c1ccco1)N1CCC2(CC1)CCN(C(c1ccccc1)c1ccccc1)CC2
- AC50 [3]: 39.8 µM (inconclusive)
- AC50 [4]: inconclusive

SMILES: Cc1n[nH]c(O)c1C(c1ccc(-c2ccc(F)cc2)o1)c1c(C)n[nH]c1O
- IC50 [5]: > 100 µM (inactive)
- IC50 [6]: 41.6 µM (active)
- AC50 [7]: 0.321 µM (active)
- EC50 [8]: 0.297 µM (active)
- IC50 [9]: 58.1 µM (active)
- IC50 [10]: 14 µM (active)
- IC50 [11]: 12.3 µM (active)

SMILES: CC(=O)OCc1nc2ccccc2s1
- AC50 [12]: 25.1 µM (inconclusive)
- AC50 [4]: inconclusive
- AC50 [13]: inconclusive

SMILES: COc1ccc(-c2noc(-c3ccoc3C)n2)cc1
- IC50 [1]: > 67.6 µM (inactive)
- IC50 [2]: > 67.6 µM (inactive)

SMILES: Cn1cccc1/C=C1\SC(=O)N(c2ccc(O)cc2)C1=O
- EC50 [14]: > 99 µM (inactive)
- EC50 [15]: 29.2 µM (inactive)

SMILES: CCOC(=O)CN1C(=O)Nc2ccc(Br)cc2C1c1ccccc1 (centres undefined)
- AC50 [4]: inconclusive

SMILES: Cc1c(N/C=C2/C(=O)N(C)C(=O)c3ccccc32)c(=O)n(-c2ccccc2)n1C
- EC50 [16]: > 120 µM (not active)
- EC50 [17]: > 300 µM (not active)
- EC50 [18]: > 120 µM (not active)
- EC50 [19]: > 300 µM (inconclusive)
- EC50 [20]: > 120 µM (not active)
- EC50 [14]: > 99 µM (inactive)
- EC50 [15]: 56.4 µM (inactive)

SMILES: Cc1cccc(-c2nc(Nc3ccc(O)cc3)c3ccccc3n2)c1
- AC50 [21]: 1.1 µM (active)

SMILES: Cc1noc(NS(=O)(=O)c2ccc(NC(=O)c3oc4ccc(Cl)cc4c3C)cc2)c1C
- EC50 [22]: 8.14 µM (active)
- EC50 [23]: 36.9 µM (active)
- AC50 [24]: 0.626 µM (active)
- AC50 [25]: 10 µM (active)
- AC50 [21]: 6.88 µM (active)

SMILES: COc1ccc(C(=O)Nc2nc(C)c(C(C)=O)s2)cc1S(=O)(=O)N1CCOCC1
- EC50 [14]: > 99 µM (inactive)
- EC50 [15]: > 99 µM (inactive)
